Laboratory results taken from patent US7632872B2, “Analgesic agent for newborn or fetal subjects” (Protexeon Limited, priority 2002, dated 2009).
Read-outs that look alike come from different tables or passages of the source. Marks after values point to notes of the source that are not given here.

How the values were obtained:
rats = conditions: cited from earlier work
[1] = cited from earlier work
c-Fos positive neurones = assay: Example 1: formalin hindpaw injection in 7 day neonatal rat pup, cFos positive neurones in dorsal horn; assay type: in vivo; conditions: 7 day old rat; dorsal horn of spinal cord; 90 minutes after formalin; xenon 70% v/v, nitrous oxide at a normally analgesic dose in the adult rat
Protocol: The analgesic efficacy of xenon was investigated in a neonatal rat pup. A 7 day neonatal rat pup is known to be developmentally equivalent to a human full term fetus with respect to pain processing pathways.
A 7 day old rat was injected with formalin into the hindpaw during exposure to either air or xenon (70% v/v). 90 minutes later the animal was killed and the spinal cord removed; evidence of activation of pain-processing pathways by formalin was sought by counting the number of cFos positive neurones in the dorsal horn of the spinal cord.

[2] = in vivo; cited from earlier work
[3] = administration of xenon; cited from earlier work
NMDA receptor = conditions: 80% xenon; cultured hippocampal neurons; cited from earlier work
c-Fos expression = assay: Formalin-induced c-Fos expression at the lumbar level of the spinal cord (immunohistochemistry); assay type: in vivo, rat; conditions: ipsilateral, 70% Xe; for reduction of c-Fos expression in response to formalin: 7 day-old pups; for suppression of mean c-Fos expression: 19 day-old rats; for depression of c-Fos expression in response to formalin: 28 day-old rats; for inhibition of c-Fos expression: adult rats
Protocol: (§1) The study protocol was approved by the Home Office (UK), and all efforts were made to minimize animal suffering and the number of animals used. Fischer rats were used for the entire study (B&K Universal, Grimston Aldbrough Hull, UK). The rats were provided ad libitum food and water, and artificial lighting between 6 a.m. and 6 p.m. The age of each animal was determined from the body weight, based on a previously established growth curve (Hashimoto et al., 2002). (The date of birth was defined as 0 day-old.) Experiments were performed on rat pups of 7, 19, 28 day-old and on adult rats (11-12 week-old).
(§2) Within each age-group, there were three cohorts (n=3 - 4) “Air+formalin”, “Xenon+formalin” and “Air+saline” cohorts. In the Air+formalin group, animals exposed to air were injected with 5% formalin into the plantar surface of their left hind paw subcutaneously. In the Xenon+formalin group, animals exposed to 70% Xe/20% O2/10% N2 were injected with 5% formalin as described above. In the Air+saline group, animals exposed to air were injected with saline as above. The volumes of formalin or saline injected were adjusted for each age group as previously reported [Ohashi Y et al, Pain 2002;100:7-18] and were as follows: 10 μl for 7 days old; 15 μl for 19 days old; 20 μl for 28 days old; 50 μl for adults.
(§3) A recirculating system for exposure to the gas was constructed to minimise xenon consumption (FIG. 3). The circuit was flushed with gas (either air or xenon/oxygen/nitrogen) at a flow rate of 4 l/min and after the desired gas concentrations were achieved, the flow rate was reduced to 40 ml/min for the remainder of the experimental period. The carbon dioxide level and the humidity were kept less than 0.6% and 50% respectively with soda lime and silica gel. Formalin or saline was administered 15 min after gas exposure; thereafter, animals were exposed to the gas mixture for a further 90 min.
Ninety min after the formalin injection, animals were deeply anesthetised with pentobarbital (100 mg/kg, i.p.) and perfused with 4% paraformaldehyde. The whole spinal cord was removed. The lumbar enlargement was sectioned transversely at 30 μm and then was stained for c-Fos as previously described [Ma D et al, Br J Anaesth 2002;89:73946]. Briefly, sections were incubated for 30 min in 0.3% H2O2 in methanol and thereafter washed three times in 0.1M phosphate buffered saline (PBS). Following this, the sections were incubated for 1 hour in a “blocking solution” consisting of 3% donkey serum and 0.3% Triton X in PBS (PBT) and subsequently incubated overnight at 4° C. in 1:5,000 goat anti-c-Fos antibody (sc-52-G, Santa Cruz Biotechnology, Santa Cruz, Calif.) in PBT with 1% donkey serum. The sections were then rinsed 3 times with PBT and incubated with 1:200 donkey anti-goat IgG (Vector laboratories, Burlingame, Calif.) in PBT with 1% Donkey serum for 1 hour. The sections were washed again with PBT and incubated with avidin-biotin-peroxidase complex (Vector Laboratories) in PBT for 1 hour. The sections were rinsed 3 times with PBS and stained with 3,3′-diaminobenzidine (DAB) with nickel ammonium sulphate in which hydrogen peroxide was added (DAB kit, Vector Laboratories). After the staining was completed, the sections were rinsed in PBS followed by distilled water and mounted, dehydrated with 100% ethanol, cleaned with 100% xylene and covered with cover slips.
Photomicrographs of three sections per each animal were scored for c-Fos positive neurons by an observer who was blinded to the experimental treatment. For the purpose of localizing the c-Fos positive cells to functional regions of the spinal cord, each section was divided into A/B (laminae I-II or the superficial area), C (laminae […] or nucleus proprius area), D (laminae V-VI or the neck area and E (laminae VII-Xor the ventral area) [Yi D K et al, Pain 1995;60:257-265]. […]

Fischer rats = assay: Formalin plantar test, nociceptive intensity scoring (behaviour); assay type: in vivo, rat; conditions: for area under curve (AUC) of nociceptive intensity scoring curves: 70% Xe + formalin, AUC over 60 min, mean(SEM), n=3-4
Protocol: as §1, §2, §3
Immediately after injection of formalin, behavior was recorded for 60 min with a video camera (MegaPixel, Digital Handycam, Sony) positioned approximately 50 cm beneath the floor of the chamber to allow an unobstructed view of the paws (visible via a television monitor) and to facilitate recording of animal behavior. The chamber and holding area for pups waiting to be tested were maintained at room temperature throughout the experiment.
Older rat pups were scored across four categories of pain behavior after xenon administration: no pain (the injected paw was in continuous contact with floor=“0”), favoring (the injected paw rested lightly on the floor=“1”), lifting (the injected paw was elevated all the time=“2”) and licking (licking, biting or shaking of the injected paw=“3”) [Teng C J et al, Pain 1998;76:337-47] and calculated as [Nociceptive score =(T1+[T2×2]+[T3×3])/300, where T1, T2 and T3 are the durations (sec) spent in categories 1, 2 or 3 per 300 sec epoch].
The nociceptive intensity scoring against time in each animal was plotted and the area under curve (over a 60 min time period) (AUC) from each animal was calculated. The mean of c-Fos positive neurons for three representative sections in each region as described above was the aggregate score for each animal. The results of nociceptive intensity or c-Fos positive neurons are reported as means±SEMs. The statistical analysis was performed by one-way analysis of variance, followed by Newman-Keuls test. A p value <0.05 was regarded as statistically significant.

For `[N-]=[N+]=O` [N2O, Nitrous oxide], the “antinociceptive effect (behaviorally and immunohistochemically)” value (rats; animals younger than 23 days old, formalin) is given as “no antinociceptive effect”, the “antinociceptive effects against thermal and inflammatory stimulation” value (rats; rats under 3 weeks of age) is given as “lacks antinociceptive effects” and the MAC ([1]; humans) is given as 104%. The “effect on formalin-induced c-Fos positive neurones” value (c-Fos positive neurones) was “did not change”.

For `[Xe]` [xenon], the teratogenic effects [2] is given as “devoid of teratogenic effects”, the “inherent neurotoxicity of NMDA antagonists” value [3] is given as “does not appear to exist” and the “reduction of NMDA-activated currents” value (NMDA receptor) is given as “up to 60%”. The “reduction of c-Fos expression in response to formalin” value (from here on “reduction of c-Fos expression”) (c-Fos expression; lamina C, P<0.001) was 50%, the “reduction of c-Fos expression” value (c-Fos expression; lamina D, P<0.001) was 50% and the “reduction of c-Fos expression” value (c-Fos expression; lamina E, P<0.01) was 28%. For the same compound, the “reduction of c-Fos expression” value (c-Fos expression; laminae A/B, P<0.001) was 48%, the “suppression of mean c-Fos expression” value (c-Fos expression; lamina III-IV, P<0.001) was 57% and the “suppression of mean c-Fos expression” value (c-Fos expression; lamina V-VI, P<0.001) was 62%. The “suppression of mean c-Fos expression” value (c-Fos expression; laminae I-II, P<0.001) was 55%, the “depression of c-Fos expression in response to formalin” value (“depression of c-Fos expression” for short) (c-Fos expression; lamina III-IV, P<0.001) was 27% and the “depression of c-Fos expression” value (c-Fos expression; lamina V-VI, P<0.001) was 28%. For the same compound, the “depression of c-Fos expression” value (c-Fos expression; laminae I-II, P<0.001) was 34%, the “inhibition of c-Fos expression” value (c-Fos expression; lamina III-IV, P<0.001) was 45% and the “inhibition of c-Fos expression” value (c-Fos expression; lamina V-VI, P<0.001) was 34%. The “inhibition of c-Fos expression” value (c-Fos expression; laminae I-II, P<0.001) was 41%, the “area under curve (AUC) of nociceptive intensity scoring curves” value (shortened to “area under curve (AUC)”) (Fischer rats; 7-day-old Fischer rats, P<0.001 vs Air + formalin 11(0.4)) was 0.17(0.04)** and the “area under curve (AUC)” value (Fischer rats; 19-day-old Fischer rats, P<0.01 vs Air + formalin 88(8)) was 5(0.9)*. The “area under curve (AUC)” value (Fischer rats; 28-day-old Fischer rats, P<0.001 vs Air + formalin 81(7)) was 1.0(0.3)**, the “nociceptive behaviour after formalin injection” value (Fischer rats; 7 day-old rats exposed to xenon, 60-min observation period) was “only mild nociceptive behaviour for the first two minutes” and the “area under curve (AUC)” value (Fischer rats; Adult Fischer rats, P<0.001 vs Air + formalin 120(0.7)) was 0.8(0.1)**. For the same compound, the “minimum alveolar concentration (MAC)” value ([1]; elderly female patients) was 51 % atn, the “minimum alveolar concentration (MAC)” value ([1]; humans) was 71 % atm and the MAC-awake ([1]; in vivo) was 33%. For the same compound, the “effect on formalin-induced c-Fos positive neurones” value (c-Fos positive neurones) was “almost completely attenuated”.
